Measured values from patent US7319109B2, “Farnesoid X receptor agonists” (Smith Kline Beecham Corporation, priority 2002, dated 2008).

Target: T1, Human FXRα Ligand Binding Domain (FXRα LBD) (Homo sapiens, UniProt Q96RI1)
T1 construct: polyhistidine (N); made in house; host or cells: E. coli BL21 (DE3), pRSET-A vector
T1 sequence (Q96RI1 222-472 isoform Q96RI1-2): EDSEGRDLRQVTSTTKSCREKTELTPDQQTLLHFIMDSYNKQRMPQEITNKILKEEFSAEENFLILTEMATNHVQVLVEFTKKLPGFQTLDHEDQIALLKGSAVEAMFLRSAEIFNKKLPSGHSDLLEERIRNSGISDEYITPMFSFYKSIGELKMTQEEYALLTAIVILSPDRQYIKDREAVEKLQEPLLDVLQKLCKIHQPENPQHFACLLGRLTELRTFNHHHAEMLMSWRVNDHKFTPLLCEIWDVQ
Experiment: FXR Affinity Binding Assay: ligand mediated cofactor peptide (SRC-1 LCD2, 676-700) interaction, time resolved fluorescence
Settings: FXRα LBD-APC / europium labeled SRC-1 peptide, TRF signal, at least 2 hours at room temperature; read-out: Activity (pEC50) (converted)

Row | SMILES | EC50 [nM]
1 | CC(C)c1onc(-c2ccccc2OC(F)(F)F)c1COc1ccc(N(C)S(=O)(=O)c2cccc(C(=O)O)c2)c(Cl)c1 [Example 72, 3-{[[2-Chloro-4-({5-isopropyl-3-[2-(trifluoromethoxy)phenyl]isoxazol-4-yl}methoxy)-phenyl](methyl)amino]sulfonyl}benzoic acid] | 102 to 1000
2 | Cc1cc(OCc2c(-c3ccccc3OC(F)(F)F)noc2C(C)C)ccc1N(C)S(=O)(=O)c1cccc(C(=O)O)c1 [Example 73, 3-{[[4-({5-Isopropyl-3-[2-(trifluoromethoxy)phenyl]isoxazol-4-yl}methoxy)-2-methyl-phenyl](methyl)amino]sulfonyl}benzoic acid] | 102 to 1000
3 | CCc1onc(Cc2c(Cl)cccc2Cl)c1COc1ccc(N(C)S(=O)(=O)c2cccc(C(=O)O)c2)c(C)c1 [Example 74, 3-{[(4-{[3-(2,6-Dichlorobenzyl)-5-ethylisoxazol-4-yl]methoxy}-2-methylphenyl)(methyl)-amino]sulfonyl}benzoic acid] | 102 to 1000
4 | COC(=O)c1ccc(OCc2ccc(OCc3c(-c4c(Cl)cccc4Cl)noc3C(C)C)cc2Cl)cc1 [Example 75, Methyl 4-[(2-chloro-4-{[3-(2,6-dichlorophenyl)-5-isopropylisoxazol-4-yl]methoxy}benzyl)oxy]benzoate] | 102 to 1000
5 | COC(=O)c1cccc(OCc2ccc(OCc3c(-c4ccccc4OC(F)(F)F)noc3C(C)C)cc2Cl)c1 [Example 83, Methyl 3-{[2-chloro-4-({5-isopropyl-3-[2-(trifluoromethoxy)-phenyl]isoxazol-4-yl}methoxy)benzyl]oxy}benzoate] | 102 to 1000
6 | COC(=O)c1cccc(OCc2ccc(OCc3c(-c4ccccc4OC(F)(F)F)noc3C(C)C)cc2C)c1 [Example 84, Methyl 3-{[4-({5-isopropyl-3-[2-(trifluoromethoxy)phenyl]isoxazol-4-yl}methoxy)-2-methylbenzyl]oxy}benzoate] | 1020 to 10000
7 | CC(C)c1onc(-c2ccccc2OC(F)(F)F)c1COc1ccc(COc2cccc(C(=O)O)c2)c(Cl)c1 [Example 85, 3-{[2-Chloro-4-({5-isopropyl-3-[2-(trifluoromethoxy)phenyl]isoxazol-4-yl}methoxy)-benzyl]oxy}benzoic acid] | 102 to 1000
8 | Cc1cc(OCc2c(-c3ccccc3OC(F)(F)F)noc2C(C)C)ccc1COc1cccc(C(=O)O)c1 [Example 86, 3-{[4-({5-Isopropyl-3-[2-(trifluoromethoxy)phenyl]isoxazol-4-yl}methoxy)-2-methyl-benzyl]oxy}benzoic acid] | 102 to 1000
9 | CCc1onc(Cc2c(Cl)cccc2Cl)c1COc1ccc(COc2cccc(C(=O)O)c2)c(Cl)c1 [Example 87, 3-[(2-Chloro-4-{[3-(2,6-dichlorobenzyl)-5-ethylisoxazol-4-yl]methoxy}benzyl)oxy]benzoic acid] | 102 to 1000
10 | COC(=O)c1cccc(SCc2ccc(OCc3c(-c4ccccc4OC(F)(F)F)noc3C(C)C)cc2Cl)c1 [Example 88, Methyl 3-{[2-chloro-4-({5-isopropyl-3-[2-(trifluoro-methoxy)phenyl]isoxazol-4-yl}methoxy)benzyl]thio}benzoate] | 102 to 1000
11 | COC(=O)c1cccc(SCc2ccc(OCc3c(-c4ccccc4OC(F)(F)F)noc3C(C)C)cc2C)c1 [Example 89, Methyl 3-{[4-({5-isopropyl-3-[2-(trifluoromethoxy)phenyl]isoxazol-4-yl}methoxy)-2-methylbenzyl]thio}benzoate] | 102 to 1000
12 | CCOC(=O)c1cccc(NCc2ccc(OCc3c(-c4ccccc4OC(F)(F)F)noc3C(C)C)cc2Cl)c1 [Example 95, Ethyl 3-{[2-chloro-4-({5-isopropyl-3-[2-(trifluoromethoxy)phenyl]-4-isoxazolyl}methoxy)benzyl]amino}benzoate] | 102 to 1000
13 | CC(C)c1onc(-c2ccccc2OC(F)(F)F)c1COc1ccc(CNc2cccc(C(=O)O)c2)c(Cl)c1 [Example 96, 3-{[2-Chloro-4-({5-isopropyl-3-[2-(trifluoromethoxy)phenyl]-4-isoxazolyl}methoxy)benzyl]amino}benzoic acid] | 102 to 1000
14 | CC(C)c1onc(-c2ccccc2OC(F)(F)F)c1COc1ccc(CN(C)c2cccc(C(=O)O)c2)c(Cl)c1 [Example 97, 3-[[2-Chloro-4-({5-isopropyl-3-[2-(trifluoromethoxy)phenyl]-4-isoxazolyl}methoxy)benzyl](methyl)amino]benzoic acid] | 102 to 1000
15 | COC(=O)c1ccc(COc2ccc(OCc3c(-c4c(Cl)cccc4Cl)noc3C(C)C)cc2C)cc1 [Example 98, Methyl 4-[(4-{[3-(2,6-dichlorophenyl)-5-isopropylisoxazol-4-yl]methoxy}-2-methylphenoxy)methyl]benzoate] | 1020 to 10000

Other lines, results leading:

Row | EC50 [nM] | SMILES
16 | 102 to 1000 | COC(=O)c1cccc(OCc2ccc(OCc3c(-c4c(Cl)cccc4Cl)noc3C(C)C)cc2Cl)c1 [Example 76, Methyl 3-[(2-chloro-4-{[3-(2,6-dichlorophenyl)-5-isopropylisoxazol-4-yl]methoxy}benzyl)-oxy]benzoate]
17 | < 100 | CC(C)c1onc(-c2c(Cl)cccc2Cl)c1COc1ccc(COc2cccc(C(=O)O)c2)c(Cl)c1 [Example 77, 3-[(2-Chloro-4-{[3-(2,6-dichlorophenyl)-5-isopropylisoxazol-4-yl]methoxy}benzyl)oxy]-benzoic acid]
18 | < 100 | CC(C)c1onc(-c2c(Cl)cccc2Cl)c1COc1ccc(CSc2cccc(C(=O)O)c2)c(Cl)c1 [Example 78, 3-[(2-Chloro-4-{[3-(2,6-dichlorophenyl)-5-isopropylisoxazol-4-yl]methoxy}benzyl)thio]-benzoic acid]
19 | < 100 | Cc1cc(OCc2c(-c3c(Cl)cccc3Cl)noc2C(C)C)ccc1COc1cccc(C(=O)O)c1 [Example 79, 3-[(4-{[3-(2,6-Dichlorophenyl)-5-isopropylisoxazol-4-yl]methoxy}-2-methylbenzyl)oxy]-benzoic acid]
20 | < 100 | Cc1cc(OCc2c(-c3c(Cl)cccc3Cl)noc2C(C)C)ccc1CSc1cccc(C(=O)O)c1 [Example 80, 3-[(4-{[3-(2,6-Dichlorophenyl)-5-isopropylisoxazol-4-yl]methoxy}-2-methylbenzyl)thio]-benzoic acid]
21 | < 100 | CC(C)c1onc(-c2c(Cl)cccc2Cl)c1COc1ccc(COc2ccc(C(=O)O)cc2)c(Cl)c1 [Example 81, 4-[(2-Chloro-4-{[3-(2,6-dichlorophenyl)-5-isopropylisoxazol-4-yl]methoxy}benzyl)oxy]benzoic acid]
22 | 102 to 1000 | CC(C)c1onc(-c2c(Cl)cccc2Cl)c1COc1ccc(CSc2ccc(C(=O)O)cc2)c(Cl)c1 [Example 82, 4-[(2-Chloro-{[3-(2,6-dichlorophenyl)-5-isopropylisoxazol-4-yl]methoxy}benzyl)thio]-benzoic acid]
23 | 102 to 1000 | CC(C)c1onc(-c2ccccc2OC(F)(F)F)c1COc1ccc(CSc2cccc(C(=O)O)c2)c(Cl)c1 [Example 90, 3-{[2-Chloro-4-({5-isopropyl-3-[2-(trifluoromethoxy)phenyl]isoxazol-4-yl}methoxy)-benzyl]thio}benzoic acid]
24 | 102 to 1000 | Cc1cc(OCc2c(-c3ccccc3OC(F)(F)F)noc2C(C)C)ccc1CSc1cccc(C(=O)O)c1 [Example 91, 3-{[4-({5-Isopropyl-3-[2-(trifluoromethoxy)phenyl]isoxazol-4-yl}methoxy)-2-methyl-benzyl]thio}benzoic acid]
25 | 102 to 1000 | COC(=O)c1cccc(N(C)Cc2ccc(OCc3c(-c4c(Cl)cccc4Cl)noc3C(C)C)cc2Cl)c1 [Example 92, Methyl 3-[(2-chloro-4-{[3-(2,6-dichlorophenyl)-5-isopropylisoxazol-4-yl]methoxy}benzyl)(methyl)amino]benzoate]
26 | 102 to 1000 | CC(C)c1onc(-c2c(Cl)cccc2Cl)c1COc1ccc(CN(C)c2cccc(C(=O)O)c2)c(Cl)c1 [Example 93, 3-[(2-Chloro-4-{[3-(2,6-dichlorophenyl)-5-isopropylisoxazol-4-yl]methoxy}benzyl)(methyl)amino]benzoic acid]
27 | 102 to 1000 | CC(C)c1onc(-c2c(Cl)cccc2Cl)c1COc1ccc(CNc2cccc(C(=O)O)c2)c(Cl)c1 [Example 94, 3-[(2-Chloro-4-{[3-(2,6-dichlorophenyl)-5-isopropylisoxazol-4-yl]methoxy}benzyl)amino]benzoic acid]
28 | 1020 to 10000 | COC(=O)c1cccc(COc2ccc(OCc3c(-c4c(Cl)cccc4Cl)noc3C(C)C)cc2Cl)c1 [Example 99, Methyl 3-[(2-chloro-4-{[3-(2,6-dichlorophenyl)-5-isopropylisoxazol-4-yl]methoxy}-phenoxy)methyl]benzoate]
29 | 102 to 1000 | COC(=O)c1cccc(COc2ccc(OCc3c(-c4c(Cl)cccc4Cl)noc3C(C)C)cc2C)c1 [Example 100, Methyl 3-[(4-{[3-(2,6-dichlorophenyl)-5-isopropylisoxazol-4-yl]methoxy}-2-methyl-phenoxy)methyl]benzoate]
30 | 102 to 1000 | CC(C)c1onc(-c2c(Cl)cccc2Cl)c1COc1ccc(OCc2cccc(C(=O)O)c2)c(Cl)c1 [Example 101, 3-[(2-Chloro-4-{[3-(2,6-dichlorophenyl)-5-isopropylisoxazol-4-yl]methoxy}phenoxy)-methyl]benzoic acid]
31 | 102 to 1000 | Cc1cc(OCc2c(-c3c(Cl)cccc3Cl)noc2C(C)C)ccc1OCc1cccc(C(=O)O)c1 [Example 102, 3-[(4-{[3-(2,6-Dichlorophenyl)-5-isopropylisoxazol-4-yl]methoxy}-2-methylphenoxy)-methyl]benzoic acid]
